According to patent publication US11319305B2, “Pyrimidine sulfamide derivative and preparation method and medical application thereof” (SHIJIAZHUANG SAGACITY NEW DRUG DEVELOPMENT CO., LTD., priority 2017, dated 2022):

Assays:
human ETA receptor = molecular target: T1, human ETA receptor (Homo sapiens, UniProt P25101); experiment: In vitro antagonistic effect against human ETA receptor, Ca2+ signal in SK-N-MC cells; format: cell-based; conditions: for IC50: SK-N-MC cells, response to 1 nM endothelin-1; for ETA/ETB selectivity: ratio of ETB IC50 to ETA IC50
T1 construct: endogenously expressed human ETA receptors in SK-N-MC cells; host or cells: SK-N-MC cells
T1 sequence (P25101 21-427): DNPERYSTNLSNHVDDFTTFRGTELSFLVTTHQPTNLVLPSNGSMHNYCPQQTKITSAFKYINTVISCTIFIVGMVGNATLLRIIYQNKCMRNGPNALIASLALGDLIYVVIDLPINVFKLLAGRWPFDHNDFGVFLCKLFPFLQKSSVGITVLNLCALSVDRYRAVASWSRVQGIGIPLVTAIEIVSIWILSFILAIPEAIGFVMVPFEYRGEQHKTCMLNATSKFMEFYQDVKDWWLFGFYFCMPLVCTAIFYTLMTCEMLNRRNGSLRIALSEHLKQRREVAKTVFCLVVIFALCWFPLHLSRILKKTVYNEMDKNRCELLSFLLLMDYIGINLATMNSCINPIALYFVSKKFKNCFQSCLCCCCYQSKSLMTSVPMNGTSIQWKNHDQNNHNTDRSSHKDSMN
Method: Experimental Embodiment 1: In Vitro Test of Antagonistic Effect Against Human ETA Receptor
Antagonistic activity of the compounds against endogenously expressed human ETA receptors in SK-N-MC cells was evaluated by measuring the effect of compounds on the changes in cytoplasmic Ca^2+ ion signal induced by human ETA receptor agonists using fluorescence detection methods. The functional activity of the ETA receptor antagonistic effect was tested in Eurofins-Cerep SA according to current standard procedures.
1. Cells were suspended in Dulbecco's modified Eagle medium solution (DMEM, Invitrogen) supplemented with 1% FCSd, then distributed in 384-well plate (100 μL/well) at a density of 5×10^4 cells/well;
2. Probenecid in Hank's balanced salt solution (HBSS, Invitrogen) supplemented with 20 mM 4-(2-hydroxyethyl)piperazine-1-ethanesulfonic acid (Hepes, Invitrogen) (pH 7.4) was mixed with fluorescent probe (Fluo4 NW, Invitrogen), the mixture was added to each wells, then balanced with cells at 37° C. for 60 minutes, and then balanced with cells at 22° C. for 15 minutes;
(§1) 3. The test plate was placed in a microplate reader (CellLux, PerkinElmer), a DMSO solution or HBSS buffer with an appropriate concentration of the test compound and the positive control was added, and 1 nM endothelin-1 or HBSS buffer (base control) was added after 5 minutes, and then the change in fluorescence intensity proportional to the concentration of Ca^2+ ions of free […] was measured;
5. Standard positive control was BQ-123, several concentrations were tested in each experiments. The data was analyzed using Prism to generate a concentration-response curve, and IC50 values of the compounds were calculated.

CYP2C9 = molecular target: T2, CYP2C9 (Homo sapiens, UniProt P11712); experiment: Human liver microsomal cytochrome P450 isozyme inhibition assay, CYP2C9; format: in vitro ADME; conditions: human liver microsomes
T2 construct: Mixed human liver microsomes (HLM) were purchased from Corning Inc; tissue Corning Inc; host or cells: pooled human liver microsomes
Method: (§2) Experimental Embodiment 4: Human Liver Microsomal Cytochrome P450 Isozyme Inhibition Assay The purpose of the assay was to evaluate the inhibitory activity of the samples against human liver microsomal cytochrome P450 isozyme (CYP1A2, CYP2C9, CYP2C19, CYP2D6 and CYP3A4) using the 5-in-1 probe substrate of the CYP isozyme. Mixed human liver microsomes (HLM) were purchased from Corning Inc. (Steuben, N.Y., USA) and stored below −80° C. before use. The test compound working solution which has been diluted into serial concentrations was added to an incubation system containing human liver microsomes, probe substrates and circulating system cofactors, and a control containing solvent without the test compound was used as the enzyme activity control (100%). The concentration of the metabolite produced by the probe substrate in the sample was determined using a liquid chromatography-tandem mass spectrometry (LC-MS/MS) method. Nonlinear regression analysis was performed on the average percent activity versus concentration of subjects using SigmaPlot (V.11). The IC50 value was calculated by a three-parameter or four-parameter inverse-logarithmic equation.

CYP1A2 = molecular target: T3, CYP1A2 (Homo sapiens, UniProt P05177); experiment: Human liver microsomal cytochrome P450 isozyme inhibition assay, CYP1A2; format: in vitro ADME; conditions: human liver microsomes
T3 construct: Mixed human liver microsomes (HLM) were purchased from Corning Inc; tissue Corning Inc; host or cells: pooled human liver microsomes
T3 sequence (P05177 1-516): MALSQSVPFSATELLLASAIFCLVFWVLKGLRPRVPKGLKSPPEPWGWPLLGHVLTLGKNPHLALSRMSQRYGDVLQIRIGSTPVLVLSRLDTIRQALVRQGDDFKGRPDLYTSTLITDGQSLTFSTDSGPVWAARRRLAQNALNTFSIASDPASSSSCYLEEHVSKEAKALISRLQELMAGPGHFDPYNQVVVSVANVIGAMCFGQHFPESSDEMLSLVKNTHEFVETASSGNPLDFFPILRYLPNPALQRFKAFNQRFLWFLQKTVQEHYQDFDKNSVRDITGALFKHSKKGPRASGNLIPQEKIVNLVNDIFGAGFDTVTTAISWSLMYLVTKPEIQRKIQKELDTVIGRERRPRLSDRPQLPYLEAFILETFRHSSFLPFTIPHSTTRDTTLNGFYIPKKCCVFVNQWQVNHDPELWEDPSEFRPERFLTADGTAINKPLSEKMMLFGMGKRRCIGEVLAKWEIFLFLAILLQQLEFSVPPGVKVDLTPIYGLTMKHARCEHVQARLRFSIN
Method: as §2

CYP3A4 = molecular target: T4, CYP3A4 (Homo sapiens, UniProt P08684); experiment: Human liver microsomal cytochrome P450 isozyme inhibition assay, CYP3A4; format: in vitro ADME; conditions: human liver microsomes
T4 construct: Mixed human liver microsomes (HLM) were purchased from Corning Inc; tissue Corning Inc; host or cells: pooled human liver microsomes
Method: as §2

CYP2D6 = molecular target: T5, CYP2D6 (Homo sapiens, UniProt P10635); experiment: Human liver microsomal cytochrome P450 isozyme inhibition assay, CYP2D6; format: in vitro ADME; conditions: human liver microsomes
T5 construct: Mixed human liver microsomes (HLM) were purchased from Corning Inc; tissue Corning Inc; host or cells: pooled human liver microsomes
Method: as §2

human ETB receptor = molecular target: T6, human ETB receptor (Homo sapiens, UniProt P24530); experiment: In vitro antagonistic effect against human ETB receptor, Ca2+ signal in transfected CHO cells; format: cell-based; conditions: response to 0.3 nM endothelin-1
T6 construct: host or cells: CHO cells
T6 sequence (P24530 27-442): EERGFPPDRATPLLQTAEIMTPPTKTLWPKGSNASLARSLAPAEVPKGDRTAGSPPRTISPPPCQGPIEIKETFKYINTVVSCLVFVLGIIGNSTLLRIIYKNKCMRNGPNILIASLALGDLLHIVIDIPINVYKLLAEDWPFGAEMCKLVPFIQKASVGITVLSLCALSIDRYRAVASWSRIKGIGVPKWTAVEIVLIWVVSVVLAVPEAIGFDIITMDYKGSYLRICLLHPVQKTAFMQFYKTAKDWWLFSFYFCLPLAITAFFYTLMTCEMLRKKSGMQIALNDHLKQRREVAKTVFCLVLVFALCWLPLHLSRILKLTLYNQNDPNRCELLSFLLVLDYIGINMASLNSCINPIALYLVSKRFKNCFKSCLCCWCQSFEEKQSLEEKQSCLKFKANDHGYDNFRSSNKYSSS
Method: Antagonist activity of the compound against human ETB receptors expressed in transfected CHO cells was evaluated by measuring the effect of the compound on the changes in the cytoplasmic Ca^2+ ion signal induced by human ETB receptor agonists. The functional activity of the ETB receptor antagonistic effect was tested in Eurofins-Cerep SA according to current standard procedures.
1. Cells were suspended in DMEM buffer (Invitrogen) and then distributed in 384-well plate (100 μL/well) at a density of 3×10^4 cells/well;
2. Probenecid in HBSS buffer (Invitrogen) supplemented with 20 mM Hepes (Invitrogen) (pH 7.4) was mixed with fluorescent probe (Fluo4 NW, Invitrogen), the mixture was added to each wells, then balanced with cells at 37° C. for 60 minutes, and then balanced with cells at 22° C. for 15 minutes;
as §1, with “and 0.3” for “and 1”
4. Results were shown as the percent inhibition of control response to 0.3 nM endothelin-1;
5. Standard positive control was BQ-788, several concentrations were tested in each experiments. The data was analyzed using Prism to generate a concentration-response curve, and IC50 values of the compounds were calculated.

CYP2C19 = molecular target: T7, CYP2C19 (Homo sapiens, UniProt P33261); experiment: Human liver microsomal cytochrome P450 isozyme inhibition assay, CYP2C19; format: in vitro ADME; conditions: human liver microsomes
T7 construct: Mixed human liver microsomes (HLM) were purchased from Corning Inc; tissue Corning Inc; host or cells: pooled human liver microsomes
Method: as §2

[1] = tested on: human liver microsomal cytochrome P450 isozyme (CYP1A2, CYP2C9, CYP2C19, CYP2D6 and CYP3A4); experiment: Human liver microsomal cytochrome P450 isozyme inhibition assay, summary over the main isozymes; format: in vitro ADME
Method: as §2

T7 sequence (P33261 whole entry): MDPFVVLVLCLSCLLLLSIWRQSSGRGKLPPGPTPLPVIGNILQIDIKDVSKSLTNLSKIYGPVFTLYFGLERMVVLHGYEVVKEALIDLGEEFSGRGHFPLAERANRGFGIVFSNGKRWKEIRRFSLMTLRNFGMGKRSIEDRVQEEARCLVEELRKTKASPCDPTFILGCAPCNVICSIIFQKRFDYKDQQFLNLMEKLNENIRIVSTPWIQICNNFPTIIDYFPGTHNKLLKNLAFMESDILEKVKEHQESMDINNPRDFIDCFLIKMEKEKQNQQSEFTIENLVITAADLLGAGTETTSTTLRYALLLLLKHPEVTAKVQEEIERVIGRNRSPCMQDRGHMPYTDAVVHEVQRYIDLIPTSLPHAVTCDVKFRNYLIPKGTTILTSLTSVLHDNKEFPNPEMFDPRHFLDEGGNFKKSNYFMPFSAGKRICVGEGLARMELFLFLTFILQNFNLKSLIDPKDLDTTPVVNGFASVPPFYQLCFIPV
T5 sequence (P10635 whole entry): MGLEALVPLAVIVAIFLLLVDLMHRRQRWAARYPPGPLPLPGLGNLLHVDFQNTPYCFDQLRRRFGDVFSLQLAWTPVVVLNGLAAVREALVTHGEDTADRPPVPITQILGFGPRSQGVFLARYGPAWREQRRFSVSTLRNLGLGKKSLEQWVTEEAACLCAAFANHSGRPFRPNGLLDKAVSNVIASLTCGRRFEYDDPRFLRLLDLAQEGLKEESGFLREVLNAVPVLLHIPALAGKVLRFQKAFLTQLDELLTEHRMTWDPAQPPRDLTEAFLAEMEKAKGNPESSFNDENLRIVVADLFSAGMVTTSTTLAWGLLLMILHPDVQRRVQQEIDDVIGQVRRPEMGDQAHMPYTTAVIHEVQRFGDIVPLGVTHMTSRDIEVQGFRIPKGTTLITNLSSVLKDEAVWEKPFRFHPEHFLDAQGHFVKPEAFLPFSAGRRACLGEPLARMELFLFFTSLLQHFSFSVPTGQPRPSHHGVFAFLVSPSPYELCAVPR
T4 sequence (P08684 whole entry): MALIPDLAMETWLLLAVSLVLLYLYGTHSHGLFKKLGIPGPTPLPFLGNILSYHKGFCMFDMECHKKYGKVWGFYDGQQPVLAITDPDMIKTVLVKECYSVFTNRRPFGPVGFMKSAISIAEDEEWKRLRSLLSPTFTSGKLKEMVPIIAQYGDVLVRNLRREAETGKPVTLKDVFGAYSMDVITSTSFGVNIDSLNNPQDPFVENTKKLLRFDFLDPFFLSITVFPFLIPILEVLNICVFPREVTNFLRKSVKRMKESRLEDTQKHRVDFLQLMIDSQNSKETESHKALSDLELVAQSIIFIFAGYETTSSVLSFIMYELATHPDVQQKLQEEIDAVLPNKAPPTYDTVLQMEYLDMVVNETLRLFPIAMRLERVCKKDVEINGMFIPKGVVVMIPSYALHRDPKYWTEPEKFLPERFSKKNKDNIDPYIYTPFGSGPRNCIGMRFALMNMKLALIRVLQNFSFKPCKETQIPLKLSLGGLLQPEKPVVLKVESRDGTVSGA
T2 sequence (P11712 whole entry): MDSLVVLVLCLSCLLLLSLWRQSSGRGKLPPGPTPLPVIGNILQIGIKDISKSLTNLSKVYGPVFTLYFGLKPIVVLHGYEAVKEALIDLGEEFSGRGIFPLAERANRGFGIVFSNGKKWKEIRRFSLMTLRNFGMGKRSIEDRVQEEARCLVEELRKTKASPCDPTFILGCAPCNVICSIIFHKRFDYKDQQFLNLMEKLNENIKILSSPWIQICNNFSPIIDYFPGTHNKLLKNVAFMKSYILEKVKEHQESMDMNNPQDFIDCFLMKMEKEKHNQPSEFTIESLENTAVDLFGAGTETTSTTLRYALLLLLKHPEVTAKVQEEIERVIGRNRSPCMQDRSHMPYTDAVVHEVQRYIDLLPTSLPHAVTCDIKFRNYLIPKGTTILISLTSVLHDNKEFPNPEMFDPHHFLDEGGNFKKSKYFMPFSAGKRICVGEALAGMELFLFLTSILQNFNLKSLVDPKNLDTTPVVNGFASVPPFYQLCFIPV

Row | SMILES | IC50 (human ETA receptor) | ETA/ETB selectivity (human ETA receptor) | IC50 (CYP2C9) | IC50 (CYP1A2) | IC50 (CYP3A4) | IC50 (CYP2D6) | IC50 (human ETB receptor) | IC50 (CYP2C19) | inhibitory effects on five main isozymes of CYP (in words) [1]
1 | CCCNS(=O)(=O)Nc1ncnc(OCCOc2ncc(Br)cn2)c1-c1ccc2ccnn2c1 [WX025] | 0.0031 µM | 19600 | 35 µM | > 50 µM | > 50 µM | > 50 µM | 61 µM | > 50 µM | very weak
2 | O=S(=O)(NCC1CC1)Nc1ncnc(OCCOc2ncc(Br)cn2)c1-c1ccc2ccnn2c1 [WX027] | 0.0028 µM | 24200 | – | – | – | – | 68 µM | – | –
3 | O=S(=O)(Nc1ncnc(OCCOc2ncc(Br)cn2)c1-c1ccc2c(c1)OCC2)N1CC2(COC2)C1 [WX032] | 0.003 µM | >10000 | – | – | – | – | > 30 µM | – | –
4 | COCCNS(=O)(=O)Nc1ncnc(OCCOc2ncc(Br)cn2)c1-c1ccc2c(c1)CCO2 [WX034] | 0.0036 µM | 55500 | – | – | – | – | 200 µM | – | –

The next compounds have a lower IC50 (human ETA receptor) than those just listed; values first:

Row | IC50 (human ETA receptor) | ETA/ETB selectivity (human ETA receptor) | IC50 (CYP2C9) | IC50 (CYP1A2) | IC50 (CYP3A4) | IC50 (CYP2D6) | IC50 (human ETB receptor) | IC50 (CYP2C19) | inhibitory effects on five main isozymes of CYP (in words) [1] | SMILES
5 | 0.002 µM | >50000 | – | – | – | – | > 100 µM | – | – | O=S(=O)(Nc1ncnc(OCCOc2ncc(Br)cn2)c1-c1ccc2c(c1)OCC2)N1CCC2(CC1)CC2 [WX028]
6 | 0.0016 µM | >18700 | – | – | – | – | > 30 µM | – | – | CCCNS(=O)(=O)Nc1ncnc(OCCOc2ncc(Br)cn2)c1-c1ccc2c(c1)CCO2 [WX033]
7 | 0.0014 µM | 78500 | > 50 µM | > 50 µM | > 50 µM | > 50 µM | 110 µM | > 50 µM | very weak | O=S(=O)(NCC1CC1)Nc1ncnc(OCCOc2ncc(Br)cn2)c1-c1ccc2scnc2c1 [WX005]
8 | 0.0013 µM | 25300 | – | – | – | – | 33 µM | – | – | COCCNS(=O)(=O)Nc1ncnc(OCCOc2ncc(Br)cn2)c1-c1ccc2c(c1)OCC2 [WX030]
9 | 0.0011 µM | 66300 | – | – | – | – | 73 µM | – | – | CCCCNS(=O)(=O)Nc1ncnc(OCCOc2ncc(Br)cn2)c1-c1ccc2ccnn2c1 [WX026]
10 | 0.0011 µM | >90900 | – | – | – | – | > 100 µM | – | – | O=S(=O)(Nc1ncnc(OCCOc2ncc(Br)cn2)c1-c1ccc2c(c1)OCC2)N1C[C@H]2C[C@H]2C1 [WX031]
11 | 0.00065 µM | 24600 | – | – | – | – | 16 µM | – | – | CCCNS(=O)(=O)Nc1ncnc(OCCOc2ncc(Br)cn2)c1-c1ccc2c(c1)OCC2 [WX029]
